Data on 49 molecules can be found in ChEMBL document CHEMBL5604063, “ASAP - DENV-2 NS2B-NS3 protease fluorescence dose response” (2024).

The target in assay [1] is T1, Genome polyprotein (dengue virus type 2, UniProt P29990). The assay is classed as functional, Thailand/16681/1984.
Assay [2] deals with T1, Genome polyprotein. The format is functional, Thailand/16681/1984. This is another data set of the same source.

Each structure is given as a SMILES string. Several values for one entry are separate records, joined by “and”; a condition that tells them apart may be missing. Equal values may be shown once.

T1 sequence (P29990 1346-1475 limits assumed): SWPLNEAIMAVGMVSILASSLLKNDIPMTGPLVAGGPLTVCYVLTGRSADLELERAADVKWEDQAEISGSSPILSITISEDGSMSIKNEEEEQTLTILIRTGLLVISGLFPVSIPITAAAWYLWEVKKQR
T1 sequence (P29990 1476-2093 limits assumed): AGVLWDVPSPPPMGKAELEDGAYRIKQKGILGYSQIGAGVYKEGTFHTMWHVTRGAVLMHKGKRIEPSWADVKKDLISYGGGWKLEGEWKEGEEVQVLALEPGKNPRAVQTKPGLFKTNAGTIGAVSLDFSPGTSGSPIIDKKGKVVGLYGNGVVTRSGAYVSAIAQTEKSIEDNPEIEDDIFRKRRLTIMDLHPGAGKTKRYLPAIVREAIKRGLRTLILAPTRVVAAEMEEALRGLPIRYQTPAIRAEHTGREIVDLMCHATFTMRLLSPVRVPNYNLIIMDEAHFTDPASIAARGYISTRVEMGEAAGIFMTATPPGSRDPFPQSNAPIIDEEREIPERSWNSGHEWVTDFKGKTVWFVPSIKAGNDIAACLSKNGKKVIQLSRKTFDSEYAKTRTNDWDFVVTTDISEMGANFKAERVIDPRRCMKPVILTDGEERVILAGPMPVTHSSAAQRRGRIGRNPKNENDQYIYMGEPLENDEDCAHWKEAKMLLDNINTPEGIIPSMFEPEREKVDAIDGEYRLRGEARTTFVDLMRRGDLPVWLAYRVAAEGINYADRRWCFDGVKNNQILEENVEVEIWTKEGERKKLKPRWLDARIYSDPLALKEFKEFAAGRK

Broadly, the IC50 is the concentration needed to halve the response being measured. Low readings indicate inhibition by little substance, high ones a need for much substance. For the molecule `CCOC(=O)[C@H](Nc1ccc2c(c1)CNC2)c1cc(Cl)cc(C2CC2)c1`, the IC50 in assay [1] stood at 76.7 µM; in assay [2], 89.8 µM.

Consider `COC1CCN(C(=O)c2ccnc(NC(=O)c3cc(C4CC4)n(C)c3C)c2)CC1`, for which the results for the IC50 in assay [1] and in assay [2] were greater than 99.5 µM and greater than 100 µM, respectively.

Regarding `O=C(NCC(F)F)[C@H](Nc1ccc2c(c1)CNC2)c1cc(Cl)ccc1Sc1ccccc1`, the IC50 in assay [1] is greater than 99.5 µM; in assay [2], greater than 100 µM.

For `Cc1c(C(=O)Nc2cc(C(=O)N[C@H]3CNC(=O)C3)ccn2)cc(C2CC2)n1C`, the IC50 was greater than 99.5 µM in assay [1] and greater than 100 µM in assay [2].

In the case of `Cc1c(C(=O)Nc2cc(C(=O)N3CCC[C@H]3C(N)=O)ccn2)cc(C2CC2)n1C`, the IC50 in assay [1] was greater than 99.5 µM; in assay [2], greater than 100 µM.

In the case of `COC1CN(C(=O)c2ccnc(NC(=O)c3cc(C4CC4)n(C)c3C)c2)C1`, the IC50 in assay [1] is greater than 99.5 µM; in assay [2], greater than 100 µM.

As for `Cc1cc(C(=O)Nc2ccc3c(c2)CNC3)cc2nc[nH]c12`, the IC50 was greater than 99.5 µM in assay [1] and greater than 100 µM in assay [2].

Take `O=C(Nc1ccc2c(c1)CNC2)c1ccc2[nH]cc(C3CCNCC3)c2c1`: the IC50 is 19.5 µM and 31.3 µM in assay [1]; 75.9 µM in assay [2].

On to `N#Cc1ccc(-c2nc3c(C(=O)Nc4ccc5c(c4)CNC5)cc(F)cc3[nH]2)cc1`, for which the IC50 in assay [1] is 2.9 µM and 2.52 µM; in assay [2] it was 11.3 µM and 10.2 µM.

For `O=C(Nc1cc(-c2cccnc2)ccn1)c1cc(C2CC2)[nH]c(=O)c1`, the concentration for half-maximal inhibition (IC50) in assay [1] is greater than 99.5 µM; in assay [2], greater than 100 µM.

On to `C=CC[C@H]1c2ccc(NC(=O)c3cc(Br)cc4[nH]ccc34)cc2CN1C(=O)OC(C)(C)C`, for which the IC50 in assay [1] is greater than 99.5 µM; in assay [2] it was greater than 100 µM.

Consider `CCNC(=O)c1ccnc(NC(=O)c2cc(C3CC3)n(C)c2C)c1`, for which the IC50 in assay [1] is greater than 99.5 µM; in assay [2], greater than 100 µM.

For `Cc1cc(C(=O)Nc2ccc3c(c2)CNC3)cc2nn[nH]c12`, the IC50 is greater than 99.5 µM in assay [1] and greater than 100 µM in assay [2].

Turning to `CC(C)c1nnc(-c2nc3c(C(=O)Nc4ccc5c(c4)CNC5)cc(F)cc3[nH]2)s1`, the concentration for half-maximal inhibition (IC50) in assay [1] is 35.2 µM and 34.8 µM; in assay [2], 64.1 µM and 67.1 µM.

For `N[C@H]1COC[C@H]1n1cc(C(=O)Nc2cc(-c3cccnc3)ccn2)cn1`, the values for the IC50 in assay [1] and in assay [2] were greater than 99.5 µM and greater than 100 µM, respectively.

In the case of `COc1ccc(-c2nc3c(C(=O)Nc4ccc5c(c4)CNC5)cc(F)cc3[nH]2)nn1`, the IC50 in assay [1] is 11.4 µM and 19.1 µM and 8.41 µM; in assay [2] it was 32 µM and 19 µM and 38 µM and 36.5 µM.

Regarding `Cc1c(C(=O)Nc2cc(C(=O)N[C@H]3CCOC3)ccn2)cc(C2CC2)n1C`, the IC50 in assay [1] is greater than 99.5 µM; in assay [2] it was greater than 100 µM.

Turning to `Cc1c(C(=O)Nc2cc(C(=O)N3C[C@@H]4[C@H](O)[C@@H]4C3)ccn2)cc(C2CC2)n1C`, the IC50 is greater than 99.5 µM in assay [1] and greater than 100 µM in assay [2].

As for `Cc1c(C(=O)Nc2cc(C(=O)N3CC[C@H](C(N)=O)C3)ccn2)cc(C2CC2)n1C`, the IC50 in assay [1] was greater than 99.5 µM; in assay [2] it was greater than 100 µM.

As for `O=C1Cc2c(cccc2C(=O)NC2CCC3(CC2)COC3)N1`, the IC50 in assay [1] is greater than 99.5 µM; in assay [2] it was greater than 100 µM.

Turning to `Cc1c(C(=O)Nc2cc(C(=O)N[C@H]3CCNC3=O)ccn2)cc(C2CC2)n1C`, the figures for the half-maximal inhibitory concentration (IC50) in assay [1] and in assay [2] were greater than 99.5 µM and greater than 100 µM, respectively.

As for `Cc1c(C(=O)Nc2cc(C(=O)N3CC[C@H]3CO)ccn2)cc(C2CC2)n1C`, the IC50 in assay [1] is greater than 99.5 µM; in assay [2] it was greater than 100 µM.

On to `COc1cc(Cl)cc([C@H](Nc2ccc3c(c2)CNC3)C(=O)NCC(F)F)c1`, for which the values for the IC50 in assay [1] and in assay [2] were greater than 99.5 µM and greater than 100 µM, respectively.

Consider `CC(C)n1cnc2cc(C(=O)Nc3ccc4c(c3)CNC4)ccc21`, for which the IC50 in assay [1] is greater than 99.5 µM; in assay [2] it was greater than 100 µM.

Regarding `Cc1c(C(=O)Nc2cc(C(=O)Nc3cccnc3)ccn2)cc(C2CC2)n1C`, the IC50 in assay [1] was greater than 99.5 µM; in assay [2] it was greater than 100 µM.

As to `Cc1c(C(=O)Nc2cc(C(=O)N3CC[C@H](O)C3)ccn2)cc(C2CC2)n1C`, the values for the IC50 in assay [1] and in assay [2] were greater than 99.5 µM and greater than 100 µM, respectively.

As to `NCc1ccc(-c2csc3cc(C(=O)Nc4ccc5c(c4)CNC5)ccc23)cc1`, the IC50 is 28.4 µM and 18.3 µM in assay [1]; greater than 100 µM in assay [2].

For the molecule `CS(=O)(=O)c1cc2c(cc1NC(=O)c1cc(F)cc3[nH]ncc13)CNC2`, the IC50 is greater than 99.5 µM in assay [1] and greater than 100 µM in assay [2].

Consider `Cc1c(C(=O)Nc2cc(C(=O)N3CC(CO)C3)ccn2)cc(C2CC2)n1C`, for which the IC50 in assay [1] is greater than 99.5 µM; in assay [2], greater than 100 µM.

On to `Cc1cc([C@H](Nc2ccc3c(c2)CNC3)C(=O)NCC(F)F)cc(C(F)(F)F)c1`, for which the concentration for half-maximal inhibition (IC50) in assay [1] is greater than 99.5 µM; in assay [2] it was greater than 100 µM.

Turning to `O=C(Nc1ccc2c(c1)CN[C@H]2[C@H](O)CO)c1cc(F)cc2[nH]ncc12`, the IC50 was greater than 99.5 µM in assay [1] and greater than 100 µM in assay [2].

On to `NCCc1cc(C(=O)Nc2cc(-c3cccnc3)ccn2)no1`, for which the IC50 in assay [1] is greater than 99.5 µM; in assay [2], greater than 100 µM.

On to `Cc1c(C(=O)Nc2cc(C(=O)N(C)[C@H]3C[C@H](O)C3)ccn2)cc(C2CC2)n1C`, for which the IC50 in assay [1] was greater than 99.5 µM; in assay [2] it was greater than 100 µM.

In the case of `Cc1c(C(=O)Nc2cc(C(=O)N3Cc4cn[nH]c4C3)ccn2)cc(C2CC2)n1C`, the half-maximal inhibitory concentration (IC50) is greater than 99.5 µM in assay [1] and greater than 100 µM in assay [2].

Take `CO[C@H]1CCCN(C(=O)c2ccnc(NC(=O)c3cc(C4CC4)n(C)c3C)c2)C1`: the figures for the IC50 in assay [1] and in assay [2] were greater than 99.5 µM and greater than 100 µM, respectively.

With `Cn1ccc(-c2cc(F)cc(C(=O)Nc3ccc4c(c3)CNC4)c2)cc1=O`, the values for the half-maximal inhibitory concentration (IC50) in assay [1] and in assay [2] were greater than 99.5 µM and greater than 100 µM, respectively.

Regarding `O=C(Nc1ccc2c(c1)CNC2)c1cc(F)cc2[nH]c(-c3ccc(F)cc3O)nc12`, the IC50 was 62.1 µM in assay [1] and greater than 100 µM in assay [2].

For the molecule `Cc1c(C(=O)Nc2cc(C(=O)N3CCC(O)CC3)ccn2)cc(C2CC2)n1C`, the results for the IC50 in assay [1] and in assay [2] were greater than 99.5 µM and greater than 100 µM, respectively.

Regarding `Cc1c(C(=O)Nc2cc(C(=O)N3CCNC(=O)C3)ccn2)cc(C2CC2)n1C`, the values for the IC50 in assay [1] and in assay [2] were greater than 99.5 µM and greater than 100 µM, respectively.

For the molecule `Cn1nccc1-c1cc(NC(=O)c2cc(F)cc3[nH]ncc23)cc2c1CNC2`, the concentration for half-maximal inhibition (IC50) in assay [1] was 54.1 µM; in assay [2], 81.4 µM.

On to `Cc1c(C(=O)Nc2cc(C(N)=O)ccn2)cc(C2CC2)n1C`, for which the IC50 is greater than 99.5 µM in assay [1] and greater than 100 µM in assay [2].

For the molecule `CN1CCc2c([nH]c3ccc(C(=O)Nc4ccc5c(c4)CNC5)cc23)C1=O`, the IC50 is greater than 99.5 µM in assay [1] and greater than 100 µM in assay [2].

On to `C=CC[C@H]1NCc2cc(NCc3cc(Cl)cc4[nH]ncc34)ccc21`, for which the figures for the IC50 in assay [1] and in assay [2] were greater than 99.5 µM and greater than 100 µM, respectively.

Regarding `Cc1c(C(=O)Nc2cc(C(=O)N3CCOC[C@H](O)C3)ccn2)cc(C2CC2)n1C`, the IC50 is greater than 99.5 µM in assay [1] and greater than 100 µM in assay [2].

Turning to `Cc1c(C(=O)Nc2cc(C(=O)N3CCOCC3)ccn2)cc(C2CC2)n1C`, the IC50 in assay [1] was greater than 99.5 µM; in assay [2], greater than 100 µM.

With `Cc1c(C(=O)Nc2cc(C(=O)N3CCCNC(=O)C3)ccn2)cc(C2CC2)n1C`, the IC50 in assay [1] is greater than 99.5 µM; in assay [2], greater than 100 µM.

On to `O=C(Nc1ccc2c(c1)CN[C@H]2CO)c1cc(F)cc2[nH]ncc12`, for which the values for the IC50 in assay [1] and in assay [2] were greater than 99.5 µM and greater than 100 µM, respectively.

In the case of `Cc1c(C(=O)Nc2cc(Br)c3c(c2)COC3)cc(C2CC2)n1C`, the figures for the IC50 in assay [1] and in assay [2] were greater than 99.5 µM and greater than 100 µM, respectively.

Turning to `NCc1csc2cc(C(=O)Nc3cc([C@H]4CCOC4)ccn3)ccc12`, the IC50 in assay [1] is greater than 99.5 µM; in assay [2] it was greater than 100 µM.
